Measured values as given in patent US8404283B2, “Standardized plant extract, process for obtaining the same and uses thereof” (Eurofarma Laboratorios Ltda, priority 2007, dated 2013).

Assays:
mice = settings: cited from earlier work
Swiss Webster mice [1] = experiment: formalin induced pain model (Phase I, Phase II, edema); assay type: in vivo; settings: oral administration
Description: This model is more specific than the acetic acid induced abdominal contortion model. It allows the assessment of two distinct types of pain: the pain of neurogenic origin (direct stimulation of the nociceptive neurons) and of inflammatory origin, representing the tonic response to pain, accompanied by an inflammatory response related to the release of chemical inflammation mediators. […] Immediately after the formalin injection, the animals were placed under a glass dome surrounded by mirrors in order to facilitate observation of the ensuing behaviour. Observation commenced immediately, initially timing the reaction to pain during the first 5 minutes after the formalin injection (corresponding to the period of neurogenic pain). Following an interval of 10 minutes, the licking times were recorded for a further 15 minutes (corresponding to the inflammatory pain). Total test time was of 30′.
At the end of this observation period, the animals were sacrificed by cervical displacement and the rear paws were removed at the tibiotarsal region and weighed on an analytical balance to quantify the edema induced by the formalin. The difference in weight (in mg) between the right paw (injected with formalin) and the left paw (injected with saline) was considered the rate of edema. […] Each analysis was performed using 8 to 10 male animals (Swiss Webster mice) weighing between 25 and 30 g.
(§1) The dose was calculated individually for each animal with the quantity in mg/kg (mg/1.000 g) of the substance to be administrated being in accordance to its weight. The injected volume of the solutions followed the rule of 0.1 ml/10 g of the animal's weight.
The animals were observed after the intraplantar injection of formalin for a period of 30 minutes. The reaction time (time in which the animal remains licking the injected paw) is then quantified in each of the phases: phase I (neurogenic pain—5 min observation) and phase II (inflammatory pain—15 min observation).
(§2) Parametric statistical tests were performed on the models described above. The results were submitted to ANOVA variance analysis followed by appropriate post hoc tests. […] The statistical analyses of the results were performed by means of variance analysis followed by the multiple comparison test using the Dunnett method, when appropriate. Values of p<0.05 were considered to indicate significance. The DI50 was estimated by means of individual experiments using GraphPad Instat statistical software.

Swiss Webster mice [2] = experiment: abdominal contortion model induced by acetic acid; assay type: in vivo; settings: oral administration; for DI50: dose reducing response by 50%, 95% limits; for IM (%): inhibition of number of contortions
Description: The experimental acetic acid induced abdominal contortion model allows assessment of the antinociceptive activity of various substances that act both at central and peripheral levels. Nociceptive response is induces by the intraperitonal injection of acetic acid (0.6%) diluted in saline solution (0.9%). The abdominal contortions consist in the contraction of the abdominal muscles combined with the extension of one of the rear paws.
as §1, with “Each analysis was performed using 8 to 10 male animals (Swiss Webster mice) weighing between 25 and 30 g. The dose” for “The dose”
as §2

Structure (SMILES) | analgesia, potency relative to aspirin (mice; Meyre-Silva et al. 1999) | DI50 (Swiss Webster mice [1]; Edema) [mg/kg] | IM (%) (Swiss Webster mice [1]; Edema) | DI50 (Swiss Webster mice [1]; Phase I (neurogenic)) [mg/kg] | IM (%) (Swiss Webster mice [1]; Phase I (neurogenic)) | DI50 (mg/kg) (Swiss Webster mice [1]; Phase II (inflammatory)) | IM (%) (Swiss Webster mice [1]; Phase II (inflammatory)) | DI50 (Swiss Webster mice [2]) [mg/kg] | IM (%) (Swiss Webster mice [2]) | DI50 (mg/kg) (Swiss Webster mice [1]; Phase I (neurogenic)) | analgesic effect on acetic acid induced abdominal contortions (mice; Meyre-Silva et al. 1998, 1999)
COc1cc2oc(-c3ccc(O)cc3)cc(=O)c2c(O)c1[C@@H]1O[C@H](CO)[C@@H](O)[C@H](O)[C@H]1O[C@@H]1O[C@@H](C)[C@H](O)[C@@H](O)[C@H]1O [2″-O-rhamnosylswertisin] | approximately 16 times | – | – | – | – | – | – | – | – | – | –
CC(=O)Oc1ccccc1C(=O)O [AAS] | – | >500 | 31.7 | >500 | 12.7 | 408.87 (391.47-427.03) mg/kg | 65.7 | 364.1 | 64.5 | – | –
O=C(O)Cc1ccccc1Nc1c(Cl)cccc1Cl [Diclophenac] | – | >500 | 33.7 | – | 68.8 | – | 82.5 | 443.07 | 51.6 | 407.48 (357.56-464.37) mg/kg | –
COc1ccc2c(c1)c(CC(=O)O)c(C)n2C(=O)c1ccc(Cl)cc1 [Indomethacin] | – | >300 | 36.5 | >300 | 7.2 | 263.42 (239.83-289.35) mg/kg | 53.1 | 189.95 | 72.0 | – | –
COc1cc2oc(-c3ccc(O)cc3)cc(=O)c2c(O)c1[C@@H]1O[C@H](CO)[C@@H](O)[C@H](O)[C@H]1O [swertisin] | – | – | – | – | – | – | – | – | – | – | did not have an analgesic effect
